The data set in a line: LogD shake-flask, octanol and water. The format is physicochemical. Conditions: pH 7.4.

Structures are written as SMILES.

For the compound `c1ccc(Cc2c[nH]c3ncc(-c4cnn(C5CCNCC5)c4)cc23)cc1` [Compound 6], the “reduction in logD (versus compound 5)” value was “over 1.5 log units”.

For the origin of these results see PMC7812667 (ACS Medicinal Chemistry Letters, 2020).
